Experiments:
Format in all cases: cell-based
[1] = tested on: LCL lymphoblastoid human B cells; assay: GET transfection of pCMV-Gluc pDNA into LCL cells (FIG. 3); conditions: 20,000 cells, 24 hours post-transfection of 1 μs pCMV-Gluc pDNA with GET; short exposures of TPA
Protocol: Experiment on 20,000 LCL lymphoblastoid human B cells, measured at 24 hours post-transfection of […] pCMV-Gluc pDNA with GET. T=TPA(μM), S=SAHA (μM). TPA is shown to have the most effect on transfection in LCL cells, and it is enhanced by SAHA. There is effectively no transfection without these modulators.

[2] = tested on: RAW264.7 mouse macrophage cells; assay: GET transfection of pCMV-Gluc pDNA into RAW264.7 cells (FIG. 2); conditions: 20,000 cells, 24 hours post-transfection of 1 μg pCMV-Gluc pDNA with GET
Protocol: Experiment on 20,000 RAW264.7 mouse macrophage cells, measured at 24 hours post-transfection of 1 μg pCMV-Gluc pDNA with GET. T=TPA(μM), S=SAHA (μM).

[3] = tested on: T2 hybrid human T/B cells; assay: GET transfection of pCMV-Gluc pDNA into T2 cells (FIG. 1); conditions: 20,000 cells, 24 hours post-transfection of 1 μg pCMV-Gluc pDNA with GET
Protocol: Experiment on 20,000 T2 hybrid human T/B cells, measured at 24 hours post-transfection of 1 μg pCMV-Gluc pDNA with GET. T=TPA(μM), S=SAHA (μM). TPA is shown as the major effect on transfection efficiency in T2 cells.

## O=C(CCCCCCC(=O)Nc1ccccc1)NO [SAHA, suberoylanilide hydroxamic acid]
[1]
  transfection of LCL cells (Gluc): significantly enhances transfection
[2]
  transfection of RAW264.7 cells (Gluc): significantly enhances transfection

## CCCCCCCCCCCCCC(=O)O[C@@H]1[C@@H](C)[C@@]2(O)[C@@H](C=C(CO)C[C@]3(O)C(=O)C(C)=C[C@@H]23)[C@@H]2C(C)(C)[C@]12OC(C)=O [TPA, phorbol 12-myristate 13-acetate]
[3]
  transfection of T2 cells (Gluc): significantly enhances transfection
[1]
  transfection of LCL cells (Gluc): significantly enhances transfection

— patent publication US20220213178A1, “Enhanced Transfection” (The University of Nottingham, priority 2019, published 2022)
